The source made the active and inactive calls. The rule behind the calls is not given here.
Tests used:
CHO = assay: Selectivity index, ratio of Ki for human CB1 receptor expressed in CHO cell membranes to Ki for human CB2 receptor expressed in CHO cell membranes; format: cell-based
Cannabinoid receptor 2 [1] = target: T1, Cannabinoid receptor 2 (Homo sapiens, UniProt P34972); assay: Inverse agonist activity at human CB2 receptor expressed in CHO cell membranes after 90 mins by [35S]GTPgammaS binding assay; format: functional
Cannabinoid receptor 1 = Cannabinoid receptor 1 (Homo sapiens, UniProt P21554); assay: Displacement of [3H]CP55940 from human CB1 receptor expressed in CHO cell membranes after 2 hrs
Cannabinoid receptor 2 [2] = target: T1, Cannabinoid receptor 2; assay: Displacement of [3H]CP55940 from human CB2 receptor expressed in CHO cell membranes after 2 hrs
Cannabinoid receptor 2 [3] = target: T1, Cannabinoid receptor 2; assay: Neutral antagonist activity at human CB2 receptor expressed in CHO cell membranes after 90 mins by [35S]GTPgammaS binding assay; format: functional
Cannabinoid receptor 2 [4] = target: T1, Cannabinoid receptor 2; assay: Agonist activity at human CB2 receptor expressed in CHO cell membranes after 90 mins by [35S]GTPgammaS binding assay; format: functional
Cannabinoid receptor 2 [5] = target: T1, Cannabinoid receptor 2; assay: Inhibition of N-cycloheptyl-4-methoxy-5-methylbiphenyl-3-carboxamide maximal response at human CB2 receptor expressed in CHO cell membranes by [35S]GTPgammaS binding assay; format: functional
Cannabinoid receptor 2 [6] = target: T1, Cannabinoid receptor 2; assay: Competitive antagonist activity at human CB2 receptor expressed in CHO cell membranes assessed as inhibition of N-cycloheptyl-4-methoxy-5-methylbiphenyl-3-carboxamide-mediated receptor stimulation by [35S]GTPgammaS binding assay; format: functional
Cannabinoid receptor 2 [7] = target: T1, Cannabinoid receptor 2; assay: Protean agonist activity at human CB2 receptor expressed in CHO cell membranes after 90 mins by [35S]GTPgammaS binding assay; format: functional
Cannabinoid receptor 2 [8] = target: T1, Cannabinoid receptor 2; assay: Neutral antagonist activity at human CB2 receptor expressed in CHO cell membranes up to 10 uM after 90 mins by [35S]GTPgammaS binding assay; format: functional
Cannabinoid receptor 2 [9] = target: T1, Cannabinoid receptor 2; assay: Antagonist activity at human CB2 receptor expressed in CHO cell membranes assessed as inhibition of HU-210 mediated-stimulation at 1 to 10 uM by [35S]GTPgammaS binding assay; format: functional

Chain of Cannabinoid receptor 1 (P21554 whole entry): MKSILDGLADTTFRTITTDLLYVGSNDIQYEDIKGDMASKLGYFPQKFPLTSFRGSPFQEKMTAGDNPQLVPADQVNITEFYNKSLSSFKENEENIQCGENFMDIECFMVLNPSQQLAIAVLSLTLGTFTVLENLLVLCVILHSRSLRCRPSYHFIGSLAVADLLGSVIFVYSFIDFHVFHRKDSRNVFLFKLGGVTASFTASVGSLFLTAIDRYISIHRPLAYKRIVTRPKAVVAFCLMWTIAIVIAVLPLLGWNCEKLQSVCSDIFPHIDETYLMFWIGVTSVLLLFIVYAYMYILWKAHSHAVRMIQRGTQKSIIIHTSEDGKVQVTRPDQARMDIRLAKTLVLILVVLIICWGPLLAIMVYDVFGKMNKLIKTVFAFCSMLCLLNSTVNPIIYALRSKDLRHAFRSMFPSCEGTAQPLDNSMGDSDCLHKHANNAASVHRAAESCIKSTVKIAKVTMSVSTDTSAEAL
T1 sequence (P34972 whole entry): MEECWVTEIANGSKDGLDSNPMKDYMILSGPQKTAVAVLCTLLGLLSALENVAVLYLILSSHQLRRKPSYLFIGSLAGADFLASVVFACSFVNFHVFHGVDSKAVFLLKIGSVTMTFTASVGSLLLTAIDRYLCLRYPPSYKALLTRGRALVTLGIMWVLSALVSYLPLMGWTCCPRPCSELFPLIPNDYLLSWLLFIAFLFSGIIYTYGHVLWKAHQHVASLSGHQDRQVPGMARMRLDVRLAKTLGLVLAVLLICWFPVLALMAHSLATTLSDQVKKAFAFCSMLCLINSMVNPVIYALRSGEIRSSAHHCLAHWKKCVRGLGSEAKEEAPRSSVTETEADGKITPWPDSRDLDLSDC

| Compound | Selectivity Index (CHO) | Ki (Cannabinoid receptor 1) [nM] | Ki (Cannabinoid receptor 2 [2]) [nM] | also measured |
| --- | --- | --- | --- | --- |
| COc1c(Cc2ccc(F)cc2)cc(-c2ccc(F)cc2)cc1C(=O)NC1CCCCCC1 | 10.7 | 2830 | 265 | Activity (Cannabinoid receptor 2 [1]): Active |
| COc1ccc(-c2cc(Cc3ccc(F)cc3)c(OC)c(C(=O)NC3CCCCCC3)c2)cc1 |  | ≥ 10000 | ≥ 10000 | Neutral antagonist activity (Cannabinoid receptor 2 [3]): Active |
| C=CCc1ccc(OC)c(-c2ccc(O)c(CC=C)c2)c1 |  |  |  | Activity (Cannabinoid receptor 2 [4]): Active |
| COc1c(C)cc(-c2ccc(F)cc2)cc1C(=O)NC1CCCCCC1 |  |  |  | Activity (Cannabinoid receptor 2 [4]): Active |
| COc1c(Cc2ccc(F)cc2)cc(-c2ccc(F)cc2)cc1C(=O)N[C@H]1CC[C@@H](C)CC1 | 3.2 | 1070 | 337 |  |
| COc1c(Cc2ccccc2)cc(-c2ccccc2)cc1C(=O)NC1CCCCCC1 | 2.6 | 1560 | 594 | Activity (Cannabinoid receptor 2 [1]): Active |
| C=CCc1ccc(O)c(-c2ccc(OCCCC)c(CC=C)c2)c1 |  | 615 | 103 | Neutral antagonist activity (Cannabinoid receptor 2 [3]): Active |
| COc1c(Cc2ccccc2)cc(-c2ccccc2)cc1C(=O)N[C@H]1CC[C@@H](C)CC1 |  |  | 2670 |  |
| CCCCc1cc(-c2ccc(F)cc2)cc(C(=O)N[C@H]2CC[C@H](C)CC2)c1OC | > 5.8 | ≥ 10000 | 1760 |  |
| C=CCc1cc(NC(C)=O)c(O)c(-c2ccc(OC)c(CC=C)c2)c1 |  |  | > 10000 |  |
| C=CCc1cc(NC(=O)CCCCCCCCCCCCCCCCC)c(O)c(-c2ccc(OC)c(CC=C)c2)c1 |  |  | > 10000 |  |
| COc1ccc(-c2cc(Cc3ccc(F)cc3)c(OC)c(C(=O)N[C@H]3CC[C@@H](C)CC3)c2)cc1 | 2 | 380 | 196 | inhibition (Cannabinoid receptor 2 [5]): inactive; inhibition (Cannabinoid receptor 2 [6]): Dose-dependent effect |
| COc1c(Cc2ccc(F)cc2)cc(-c2ccccc2)cc1C(=O)N[C@H]1CC[C@@H](C)CC1 | 1.3 | 826 | 1110 |  |
| COc1c(Cc2ccc(F)cc2)cc(-c2ccccc2)cc1C(=O)NC1CCCCCC1 | 10.7 | 904 | 84.1 | Activity (Cannabinoid receptor 2 [1]): Active |
| COc1ccc(-c2cc(C)c(OC)c(C(=O)NC3CCCCCC3)c2)cc1 | 6.1 | 16500 | 2740 | Neutral antagonist activity (Cannabinoid receptor 2 [3]): Active |
| COc1c(Cc2ccc(F)cc2)cc(-c2ccc(F)cc2)cc1C(=O)N[C@H]1CC[C@H](C)CC1 | 1.7 | 1850 | 1090 |  |

| Compound | Selectivity Index (CHO) | Ki (Cannabinoid receptor 1) [nM] | Ki (Cannabinoid receptor 2 [2]) [nM] | also measured |
| --- | --- | --- | --- | --- |
| C=CCc1ccc(OCCCC)c(-c2ccc(O)c(CC=C)c2)c1 |  |  |  | Activity (Cannabinoid receptor 2 [7]): Active |
| CCCCc1cc(-c2ccccc2)cc(C(=O)N[C@H]2CC[C@H](C)CC2)c1OC |  | 3610 | 2390 |  |
| CCCCc1cc(-c2ccccc2)cc(C(=O)NC2CCCCCC2)c1OC | 5.3 | 1860 | 352 | Activity (Cannabinoid receptor 2 [1]): Active |
| CCCCc1cc(-c2ccccc2)cc(C(=O)N[C@H]2CC[C@@H](C)CC2)c1OC |  | 549 | 1260 |  |
| COc1c(C)cc(-c2ccccc2)cc1C(=O)NC1CCCCCC1 | 4.5 | 656 | 148 | Activity (Cannabinoid receptor 2 [4]): Active |
| CCCCc1cc(-c2ccc(OC)cc2)cc(C(=O)NC2CCCCCC2)c1OC |  |  | 249 | Neutral antagonist activity (Cannabinoid receptor 2 [3]): Active; inhibition (Cannabinoid receptor 2 [8]): Active; inhibition (Cannabinoid receptor 2 [9]): Active |
| COc1c(Cc2ccc(F)cc2)cc(-c2ccccc2)cc1C(=O)N[C@H]1CC[C@H](C)CC1 | 1.2 | 3090 | 2620 |  |
| C=CCc1ccc(OCCCC)c(-c2ccc(OCCCC)c(CC=C)c2)c1 |  |  | 1780 | Neutral antagonist activity (Cannabinoid receptor 2 [3]): Active |
| C=CCc1ccc(OC)c(-c2ccc(OC)c(CC=C)c2)c1 |  |  | 1380 | Activity (Cannabinoid receptor 2 [4]): Active |
| CCCCc1cc(-c2ccc(F)cc2)cc(C(=O)N[C@H]2CC[C@@H](C)CC2)c1OC | 1.8 | 2520 | 1410 |  |
| C=CCc1ccc(O)c(-c2ccc(O)c(CC=C)c2)c1 |  |  |  | Neutral antagonist activity (Cannabinoid receptor 2 [3]): Active; Activity (Cannabinoid receptor 2 [1]): Active |
| COc1c(Cc2ccccc2)cc(-c2ccccc2)cc1C(=O)N[C@H]1CC[C@H](C)CC1 |  | 2500 | 4810 |  |
| C=CCc1cc(NC(=O)CCCCCCCCCCC)c(O)c(-c2ccc(OC)c(CC=C)c2)c1 |  |  | > 10000 |  |
| COc1ccc(-c2cc(Cc3ccc(F)cc3)c(OC)c(C(=O)N[C@H]3CC[C@H](C)CC3)c2)cc1 | 1.4 | 1170 | 811 |  |
| C=CCc1ccc(O)c(-c2ccc(OC)c(CC=C)c2)c1 |  |  |  | Activity (Cannabinoid receptor 2 [4]): Active |
| CCCCc1cc(-c2ccc(F)cc2)cc(C(=O)NC2CCCCCC2)c1OC | 36.8 | 6110 | 166 | Activity (Cannabinoid receptor 2 [1]): Active |

— ChEMBL document CHEMBL3797038, “Synthesis and pharmacological evaluation of new biphenylic derivatives as CB2 receptor ligands” (Eur J Med Chem, 2016)
